Like-named read-outs stand apart in the source and are kept apart here.
Experiments:
[1] = system: 5-hLOX; design: method as in Sadik et al., 2003; settings: known flavonoid inhibitors of 5-hLOX; ref Sadik et al., 2003; cited from earlier work
[2] = biological target: T1, 5 human lipoxygenase (5-hLOX) (Homo sapiens, UniProt P09917); assay: In vitro assay of 5 human lipoxygenase inhibition; assay type: biochemical
T1 construct: purchased Cayman Chemical 60402
T1 sequence (P09917 1-674): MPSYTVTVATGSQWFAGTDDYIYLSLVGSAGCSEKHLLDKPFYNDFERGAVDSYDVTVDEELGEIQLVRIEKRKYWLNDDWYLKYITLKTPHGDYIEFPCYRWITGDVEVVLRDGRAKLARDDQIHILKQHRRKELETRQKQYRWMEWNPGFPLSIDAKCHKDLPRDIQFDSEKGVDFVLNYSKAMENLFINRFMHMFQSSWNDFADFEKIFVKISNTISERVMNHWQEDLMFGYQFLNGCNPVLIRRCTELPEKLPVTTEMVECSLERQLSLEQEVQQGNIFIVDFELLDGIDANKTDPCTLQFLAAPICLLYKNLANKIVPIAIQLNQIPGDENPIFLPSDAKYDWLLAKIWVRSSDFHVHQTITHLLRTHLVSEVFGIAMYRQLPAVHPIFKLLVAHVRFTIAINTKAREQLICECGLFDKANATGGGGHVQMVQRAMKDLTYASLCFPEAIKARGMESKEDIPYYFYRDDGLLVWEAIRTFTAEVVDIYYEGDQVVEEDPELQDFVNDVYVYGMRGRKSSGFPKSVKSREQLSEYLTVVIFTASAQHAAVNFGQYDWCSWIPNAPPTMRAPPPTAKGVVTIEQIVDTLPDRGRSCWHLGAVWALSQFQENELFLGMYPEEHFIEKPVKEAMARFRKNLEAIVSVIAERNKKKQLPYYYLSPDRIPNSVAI
Protocol: Assays of inhibition of 5-hLOX were performed using a previous published methodology ([Vásquez-Martínez et al., 2019]), with minor modifications. In shortly, the enzyme (Cayman Chemical Item No. 60402) was diluted (1:500) in the assay buffer (HEPES 50 mM, EDTA 2 mM, ATP 10 μM and CaCl2 10 μM at pH 7.5) and mixed with 10 μM of 2′,7′-dichlorofluorescin diacetate (H2DCFDA) dye. The reaction mixture was incubated for 15 min in the assay plate. Subsequently, 33.3 μl of assay buffer was added per well, and 3.3 μl of inhibitor was added to a final concentration of 10 μM; this reaction mixture was incubated for 30 min. The reaction was started by addition of AA (3.3 μM) and was incubated for 1 h and fluorescence was read in a multimode detector Synergy™ HT Multi-Mode Microplate Reader (Biotek, Winooski, VT, United States) at 480 nm excitation/ 520 nm emission after a reaction that had proceeded for 1 h at room temperature. The IC50 values were obtained using the nonlinear curve- fitting program of Graph Pad Prism Demo.

[3] = biological target: T2, 15 soybean lipoxygenase (15-sLOX) (Glycine max, UniProt P08170); assay: In vitro assay of 15 soybean lipoxygenase inhibition; assay type: biochemical
T2 construct: purchased Cayman Chemical 60712
T2 sequence (P08170 1-839): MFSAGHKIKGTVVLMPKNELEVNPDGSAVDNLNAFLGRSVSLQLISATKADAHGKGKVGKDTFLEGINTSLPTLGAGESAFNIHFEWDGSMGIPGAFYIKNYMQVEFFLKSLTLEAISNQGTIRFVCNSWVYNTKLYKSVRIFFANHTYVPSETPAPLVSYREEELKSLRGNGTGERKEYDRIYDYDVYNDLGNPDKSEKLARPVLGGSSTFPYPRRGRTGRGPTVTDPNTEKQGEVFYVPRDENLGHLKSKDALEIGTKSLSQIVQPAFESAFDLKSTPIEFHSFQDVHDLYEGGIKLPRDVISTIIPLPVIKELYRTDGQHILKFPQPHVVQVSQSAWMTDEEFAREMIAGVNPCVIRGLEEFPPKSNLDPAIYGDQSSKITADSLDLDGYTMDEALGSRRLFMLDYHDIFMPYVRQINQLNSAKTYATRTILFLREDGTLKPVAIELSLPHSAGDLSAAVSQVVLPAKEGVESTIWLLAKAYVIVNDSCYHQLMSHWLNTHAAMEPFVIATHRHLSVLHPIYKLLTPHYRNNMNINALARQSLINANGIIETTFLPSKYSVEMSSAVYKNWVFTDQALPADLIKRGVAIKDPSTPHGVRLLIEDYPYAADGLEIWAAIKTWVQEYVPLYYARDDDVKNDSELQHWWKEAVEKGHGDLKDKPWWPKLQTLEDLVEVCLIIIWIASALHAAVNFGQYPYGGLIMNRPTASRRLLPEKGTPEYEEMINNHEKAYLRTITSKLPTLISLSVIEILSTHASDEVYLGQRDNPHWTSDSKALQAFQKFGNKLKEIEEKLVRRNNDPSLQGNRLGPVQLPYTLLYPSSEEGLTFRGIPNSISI
Protocol: Assays of inhibition of 15-sLOX were performed using a previous published methodology ([Tirapegui et al., 2017]), with minor modifications. In shortly, the activity of 15-sLOX (Cayman Chemical Item No. 60712) was determined following the formation of reaction products at 234 nm (ε = 25,000 M^−1cm^−1) with a Perkin-Elmer Lambda 25 UV/Vis (LabMakelaar Benelux B.V. Zuid-Holland, Nederland). All reactions were performed at a final volume of 2 ml and stirred using a magnetic bar at room temperature. The reaction medium used contained 0.1 M HEPES buffer (pH 7.4), Triton X-100 0.01%, and the linoleic acid substrate at a 10 μM concentration determine preliminary percent inhibition (% I). The concentration was determined quantitatively by allowing the enzymatic reaction to go to completion. The reaction was carried out by adding the inhibitor (sample) in methanol to the cuvette with the substrate buffer, and finally the enzyme was added. Nordihydroguaiaretic acid was used as positive control. Assays were performed in duplicate on two different days. IC50 values were determined by measuring enzyme activity at different concentrations of inhibitor dissolved in methanol; in the range of the initial velocity of the enzyme reaction. Finally, the inhibition% vs. the inhibitor concentration was plotted, giving a hyperbolic saturation curve using GraphPad Prism Demo.

[4] = class symbol NA, read-out: IC50 5-hLOX Inhibition

SMILES: Oc1cc(O)c2c(c1)O[C@H](c1ccc(O)c(O)c1)[C@H](O)C2 [(−)-epicatechin]
- IC50 [1]: 22 µM

SMILES: O=C(O[C@@H]1Cc2c(O)cc(O)cc2O[C@@H]1c1cc(O)c(O)c(O)c1)c1cc(O)c(O)c(O)c1 [(−)-epigallocatechin gallate]
- IC50 [1]: 3.1 µM

SMILES: CCCC/C=C\CCCCCCCCCc1cccc(O)c1O [Compound 2, 3-[(10Z)-pentadec-10′-en-1-yl]-catechol]
- IC50 [2]: 2090 nM
- IC50 [3]: 54.8 µM

SMILES: CCCCCCCCCCCCCCCc1cccc(O)c1O [Compound 3, 3-n-pentadecylcatechol]
- IC50 [2]: 2740 nM
- IC50 [3]: 55.3 µM

SMILES: CCCCC=CCCCCCCCCCc1cccc(OC(C)=O)c1OC(C)=O [Compound 4]
- IC50 [2, 4]: > 124000 nM
- IC50 [3]: > 124 µM

SMILES: CCCCCCCCCCCCCCCc1cccc(OC(C)=O)c1OC(C)=O [Compound 5]
- IC50 [2, 4]: > 124000 nM
- IC50 [3]: > 124 µM

SMILES: O=c1c(O)c(-c2ccc(O)c(O)c2)oc2cc(O)cc(O)c12 [quercetin]
- IC50 [1]: 0.6 µM
